Here are results for 44 molecules from patent publication US5654308A (priority 1990, dated 1997).

In this experiment the target is T1, acetylcholine esterase (Mus musculus, UniProt P21836).
T1 construct: using a mouse brain homogenate as the acetylcholine esterase source; from tissue; host or cells: mouse brain homogenate
As to the kind of experiment: biochemical.

Setting [1] is: read-out: AChE inhibiting activity IC50.

Counter-ions that a name gives are not always drawn. Like-named read-outs stand apart in the source and are kept apart here.

T1 sequence (P21836 32-614): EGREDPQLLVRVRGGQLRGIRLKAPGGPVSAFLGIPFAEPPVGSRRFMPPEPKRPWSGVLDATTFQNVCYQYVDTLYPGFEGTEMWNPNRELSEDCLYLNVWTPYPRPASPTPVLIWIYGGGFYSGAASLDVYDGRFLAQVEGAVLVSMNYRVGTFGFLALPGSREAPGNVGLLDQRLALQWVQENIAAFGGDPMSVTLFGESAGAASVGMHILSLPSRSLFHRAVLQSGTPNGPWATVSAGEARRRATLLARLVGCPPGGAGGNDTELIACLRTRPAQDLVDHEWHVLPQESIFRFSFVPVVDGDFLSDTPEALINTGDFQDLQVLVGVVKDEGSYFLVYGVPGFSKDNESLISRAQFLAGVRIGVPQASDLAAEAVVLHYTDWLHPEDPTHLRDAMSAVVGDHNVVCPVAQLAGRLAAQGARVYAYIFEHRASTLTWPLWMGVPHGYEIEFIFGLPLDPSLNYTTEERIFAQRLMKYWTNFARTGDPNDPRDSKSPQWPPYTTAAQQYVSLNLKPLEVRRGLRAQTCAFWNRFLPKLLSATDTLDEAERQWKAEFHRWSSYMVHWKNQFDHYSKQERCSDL

For the molecule `COc1cccc2c1CN(CCC1CCN(Cc3ccccc3)CC1)C(=O)O2` [Example 1, 3-[2-(1-Benzyl-4-piperidyl)ethyl]-5-methoxy-2H-3,4-dihydro-1,3-benzoxazin-2-one hydrochloride], 0.03 nM corresponded to half-maximal inhibition (IC50).

As for `O=C1Oc2ccccc2CN1CCC1CCN(Cc2ccccc2)CC1` [Example 2, 3-[2-(1-Benzyl-4-piperidyl)ethyl]-2H-3,4-dihydro-1,3-benzoxazin-2-one hydrochloride], the IC50 is 4.94 nM.

Take `O=c1oc2ccccc2c(=O)n1CCC1CCN(Cc2ccccc2)CC1` [Example 3, 3-[2-(1-Benzyl-4-piperidyl)ethyl]-2H-3,4-dihydro-1,3-benzoxazine-2,4-dione hydrochloride]: 8.52 nM corresponded to half-maximal inhibition (IC50).

The molecule `COc1ccc2c(c1)CN(CCC1CCN(Cc3ccncc3)CC1)C(=O)O2` [Example 4, 3-{2-[1-(4-Pyridylmethyl)-4-piperidyl]ethyl}-6-methoxy-2H-3,4-dihydro-1,3-benzoxazin-2-one dihydrochloride] displayed a half-inhibitory concentration (IC50) of 7.93 nM.

For `COc1ccc2c(c1)CN(CCC1CCN(CC3OCCO3)CC1)C(=O)O2` [Example 5, 3-{2-[1-(1,3-Dioxolan-2-ylmethyl)}-4-piperidine]ethyl}-6-methoxy-2H-3,4-dihydro-1,3-benzoxazin-2-one hydrochloride], under setting [1], the IC50 stood at 49.5 nM.

On to `COc1ccc2oc(=O)n(CCC3CCN(CC4CCCC4)CC3)c(=O)c2c1` [Example 6, 3-[2-(1-Cyclopentylmethyl-4-piperidyl)-6-methoxy-ethyl]-2H-3,4-dihydro-1,3-benzoxazine-2,4-dione hydrochloride], for which the IC50 came out at 4.86 nM.

`COc1ccc2oc(=O)n(CCC3CCN(CC4OCCO4)CC3)c(=O)c2c1` [Example 7, 3-{2-[1-(1,3-Dioxolan-2-ylmethyl)-4-piperidyl]ethyl}-6-methoxy-2H-3,4-dihydro-1,3-benzoxazine-2,4-dione hydrochloride] yielded an IC50 of 124 nM.

Consider `Cc1ccc2c(n1)CN(CCC1CCN(Cc3ccccc3)CC1)C(=S)O2` [Example 9, 3-[2-(1-Benzyl-4-piperidyl)ethyl]-2H-3,4-dihydro-6-methylpyrido[2,3-d]-m-oxazine-2-thione hydrochloride], for which the IC50 amounted to 8.38 nM.

`O=c1[nH]c2nccnc2c(=O)n1CCC1CCN(Cc2ccccc2)CC1` [Example 10, 3-[2-{4 [(1-Benzyl)piperidyl]}ethyl]pyrazino[2,3-d]-pyprimidine-2,4-dione fumarate] returned an IC50 of 31.8 nM.

Regarding `CC1(O)c2nccnc2C(=O)N1CCC1CCN(Cc2ccccc2)CC1` (centres unmarked) [Example 11, 1-[2-{4-[(1-Benzyl)piperidyl]}ethyl]-7-hydroxy-7-methylpiperazino[2,3-c]pyrrolidin-2-one], the 50% inhibitory concentration (IC50) was 99.6 nM.

For `C=C1c2nccnc2C(=O)N1CCC1CCN(Cc2ccccc2)CC1` [Example 12, 1-[2-{4-[(1-Benzyl)piperidyl]}ethyl]-7-methylenepiperazino[2,3-c]pyrrolidin-2-one fumarate], 1.82 nM corresponded to half-maximal inhibition (IC50).

Turning to `O=C(c1ccccc1)C1CC(=O)N(CCC2CCN(Cc3ccccc3)CC2)C1` (centres unmarked) [Example 13, 1-[2-{4-[(1-Benzyl)piperidyl]}ethyl]-4-benzoylpyrrolidin-2-one hydrochloride], the IC50 under setting [1] worked out at 20.3 nM.

The molecule `O=C1CC(Cc2ccccc2)CN1CCC1CCN(Cc2ccccc2)CC1` (centres unmarked) [Example 14, 1-[2-{(4-[(1-Benzyl)piperidyl]}ethyl]-4-benzylpyrrolidin-2-one hydrochloride] returned an IC50 of 23.8 nM.

In the case of `O=C1CCCc2cccnc2N1CCC1CCN(Cc2ccccc2)CC1` [Example 20], the IC50 under setting [1] was found to be 69.1 nM.

Molecule `COc1ccc2c(c1)OC(=O)N(CCC1CCN(Cc3ccccc3)CC1)C2` [Example 24] came in with an IC50 of 1.87 nM.

In turn, `COc1cccc2c1OC(=O)N(CCC1CCN(Cc3ccccc3)CC1)C2` [Example 25] displayed an IC50 of 2.74 nM.

On to `COc1ccc2c(c1)CN(CCC1CCN(Cc3ccccc3)CC1)C(=O)O2` [Example 26], for which the IC50 is 0.5 nM.

The molecule `C=C1c2ccccc2C(=O)N1CCC1CCN(Cc2ccccc2)CC1` [Example 27] yielded an IC50 of 45.4 nM.

`COc1cc(OC)c2c(c1)OC(=O)N(CCC1CCN(Cc3ccccc3)CC1)C2` [Example 28] returned an IC50 of 0.38 nM.

With `O=C1Oc2c(Cl)cc(Cl)cc2CN1CCC1CCN(Cc2ccncc2)CC1` [Example 30], half-maximal inhibition (IC50) was put at 29.1 nM.

Molecule `O=C1Oc2ccc([N+](=O)[O-])cc2CN1CCC1CCN(Cc2ccccc2)CC1` [Example 31] showed an IC50 of 0.58 nM.

`O=C1Oc2ccc(Cl)cc2CN1CCC1CCN(Cc2ccccc2)CC1` [Example 32] came in with an IC50 of 1.39 nM.

`O=C1Oc2ccc([N+](=O)[O-])cc2CN1CCC1CCN(Cc2ccncc2)CC1` [Example 34] registered an IC50 of 13.8 nM.

Take `Nc1ccc2c(c1)CN(CCC1CCN(Cc3ccccc3)CC1)C(=O)O2` [Example 35]: the IC50 was 1.85 nM.

Consider `CC(=O)Nc1ccc2c(c1)CN(CCC1CCN(Cc3ccccc3)CC1)C(=O)O2` [Example 36], for which the IC50 is 1.17 nM.

`Cc1ccc2oc(=O)n(CCC3CCN(Cc4ccccc4)CC3)c(=O)c2c1` [Example 37] returned an IC50 of 2.97 nM.

For `COc1ccc2oc(=O)n(CCC3CCN(Cc4ccccc4)CC3)c(=O)c2c1` [Example 38], half-maximal inhibition (IC50) required 0.7 nM.

In turn, `O=c1oc2ccc(F)cc2c(=O)n1CCC1CCN(Cc2ccccc2)CC1` [Example 39] showed an IC50 of 7.79 nM.

Regarding `O=c1oc2ccc(F)cc2c(=O)n1CCC1CCN(CC2OCCO2)CC1` [Example 40], inhibition was half-maximal at 1020 nM (IC50).

In turn, `COc1ccc2c(c1)CN(CCC1CCN(CC3CCCC3)CC1)C(=O)O2` [Example 41] yielded an IC50 of 4.64 nM.

As for `COc1ccc2c(c1)CN(CCC1CCN(CC3CCCCC3)CC1)C(=O)O2` [Example 42], it took 3.92 nM to reach half-maximal inhibition (IC50).

The molecule `COc1ccc2oc(=O)n(CCC3CCN(CC4CCCCC4)CC3)c(=O)c2c1` [Example 43] registered an IC50 of 2.96 nM.

Regarding `COc1ccc2c(c1)CN(CCC1CCN(Cc3ccoc3)CC1)C(=O)O2` [Example 44], the IC50 under setting [1] came to 5.04 nM.

The molecule `COc1ccc2oc(=O)n(CCC3CCN(Cc4ccoc4)CC3)c(=O)c2c1` [Example 46] returned an IC50 of 11.4 nM.

In turn, `COc1cccc2c1CN(CCC1CCN(CC3OCCO3)CC1)C(=O)O2` [Example 52] returned an IC50 of 64.9 nM.

On to `COc1ccc2oc(=O)n(CCC3CCN(Cc4cccc(F)c4)CC3)c(=O)c2c1` [Example 53], for which it took 0.18 nM to reach half-maximal inhibition (IC50).

In turn, `COc1ccc2c(c1)CN(CCC1CCN(Cc3cccc(F)c3)CC1)C(=O)O2` [Example 54] displayed an IC50 of 0.34 nM.

`Cc1ccc2oc(=O)n(CCC3CCN(Cc4ccccc4)CC3)c(=O)c2n1` [Example 64] had an IC50 of 9.11 nM.

In turn, `O=C(c1ccccc1)C1CC(=O)N(C2CCN(Cc3ccccc3)CC2)C1` (centres unmarked) [Example 65] displayed an IC50 of 34000 nM.

Molecule `O=C1Nc2ncccc2CN1CCC1CCN(CC2OCCO2)CC1` [Example 66] displayed an IC50 of 288 nM.

`O=c1[nH]c2c([N+](=O)[O-])cccc2c(=O)n1CCC1CCN(CC2OCCO2)CC1` [Example 68]: the IC50 under setting [1] was determined as 220 nM.

For the molecule `O=c1[nH]c2ncccc2c(=O)n1CCC1CCN(Cc2ccncc2)CC1` [Example 71], the IC50 was 137 nM.

As for `CCOc1ccccc1C(=O)C1CC(=O)N(CCC2CCN(Cc3ccccc3)CC2)C1` (centres unmarked) [Example 74], the IC50 was determined as 27.7 nM.

`CCOc1ccc(C(=O)C2CC(=O)N(CCC3CCN(Cc4ccccc4)CC3)C2)cc1` (centres unmarked) [Example 75] registered an IC50 of 20.8 nM.
